Assay results as given in patent US7897606B2, “5,6-di-substituted oxadiazolopyrazines and thiadiazolopyrazines as CXC-chemokine receptor ligands” (Schering Corporation, priority 2005, dated 2011).

How the values were obtained:
CXCR1 = target: T1, CXCR1 (Homo sapiens, UniProt P25024); assay: CXCR1 SPA receptor binding assay
T1 construct: purchased Biosignal; host or cells: CHO cells overexpressing hCXCR1 (membranes)
T1 sequence (P25024 1-350): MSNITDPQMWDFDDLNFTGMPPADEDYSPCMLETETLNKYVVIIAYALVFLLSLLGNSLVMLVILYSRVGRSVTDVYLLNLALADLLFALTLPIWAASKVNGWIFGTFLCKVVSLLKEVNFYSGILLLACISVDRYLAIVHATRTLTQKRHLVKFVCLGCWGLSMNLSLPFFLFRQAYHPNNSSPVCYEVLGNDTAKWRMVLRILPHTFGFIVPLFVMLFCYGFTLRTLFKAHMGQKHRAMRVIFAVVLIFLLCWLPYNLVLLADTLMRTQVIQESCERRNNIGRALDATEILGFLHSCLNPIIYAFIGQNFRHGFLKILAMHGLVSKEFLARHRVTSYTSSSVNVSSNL
Protocol: For each well of a 96 well plate, a reaction mixture of 10 μg hCXCR1-CHO overexpressing membranes (Biosignal) and 200 μg/well WGA-SPA beads (Amersham) in 100 μl can be prepared in CXCR1 assay buffer (25 mM HEPES, pH 7.8, 2 mM CaCl2, 1 mM MgCl2, 125 mM NaCl, 0.1% BSA) (Sigma). A 0.4 nM stock of ligand, [125I]-IL-8 (NEN) can be prepared in the CXCR1 assay buffer. 20× stock solutions of test compounds can be prepared in DMSO (Sigma). A 6× stock solution of IL-8 (R&D) can be prepared in CXCR2 assay buffer. The above solutions can be added to a 96-well assay plate (PerkinElmer) as follows: 10 μl test compound or DMSO, 40 μl CXCR1 assay buffer or IL-8 stock, 100 μl of reaction mixture, 50 μl of ligand stock (Final [Ligand]=0.1 nM). The assay plates can be shaken for 5 minutes on plate shaker, then incubated for 8 hours before cpm/well can be determined in Microbeta Trilux counter (PerkinElmer). % Inhibition of Total binding-NSB (250 nM IL-8) can be determined for IC50 values.

CXCR2 = target: T2, CXCR2 (Homo sapiens, UniProt P25025); assay: CXCR2 SPA receptor binding assay
T2 construct: purchased Biosignal; host or cells: CHO cells overexpressing hCXCR2 (membranes)
T2 sequence (P25025 1-360): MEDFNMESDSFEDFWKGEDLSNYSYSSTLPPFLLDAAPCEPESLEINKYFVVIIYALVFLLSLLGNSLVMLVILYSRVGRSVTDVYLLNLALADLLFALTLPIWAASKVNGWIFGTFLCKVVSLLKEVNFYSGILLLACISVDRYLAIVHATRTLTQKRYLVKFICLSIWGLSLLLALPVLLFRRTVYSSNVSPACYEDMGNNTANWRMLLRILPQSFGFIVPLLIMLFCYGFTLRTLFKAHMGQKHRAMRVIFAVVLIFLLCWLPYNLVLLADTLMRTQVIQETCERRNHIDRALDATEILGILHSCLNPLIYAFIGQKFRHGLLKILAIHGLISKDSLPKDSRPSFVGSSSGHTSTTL
Protocol: For each well of a 96 well plate, a reaction mixture of 4 μg hCXCR2-CHO overexpressing membranes (Biosignal) and 200 μg/well WGA-SPA beads (Amersham) in 100 μl can be prepared in CXCR2 assay buffer (25 mM HEPES, pH 7.4, 2 mM CaCl2, 1 mM MgCl2). A 0.4 nM stock of ligand, [125I]-IL-8 (NEN), can be prepared in the CXCR2 assay buffer. 20× stock solutions of test compounds can be prepared in DMSO (Sigma). A 6× stock solution of GRO-α (R&D) can be prepared in CXCR2 assay buffer. The above solutions can be added to a 96-well assay plate (PerkinElmer or Corning) as follows: 10 μl test compound or DMSO, 40 ul CXCR2 assay buffer or GRO-α stock, 100 μl of reaction mixture, 50 μl of ligand stock (Final [Ligand]=0.1 nM). When 40× stock solutions of test compounds in DMSO can be prepared, then the above protocol can be used except instead 5 μl test compound or DMSO and 45 μl CXCR2 assay buffer can be used. The assay plates can be shaken for 5 minutes on a plate shaker, then incubated for 2-8 hours before cpm/well can be determined in Microbeta Trilux counter (PerkinElmer). % Inhibition of total binding minus non-specific binding (250 nM Gro-α or 50 μM antagonist) can be determined and IC50 values can be calculated.

## CC[C@@H](Nc1nc2nonc2nc1Nc1cccc(C(=O)N(C)C)c1O)c1ccc(C)o1 [Compound 4]
CXCR1
  Ki: 4220 nM
CXCR2
  Ki: 196 nM
